Measured values as given in patent publication US8263563B2, “Furin inhibitors” (priority 2004, dated 2012).
Ends that are not written are not given here. * marks the point of attachment. Decanoyl = CCCCCCCCCC(=O)*; OPH = not defined here; CH2Cl = ClC*

Tested on: lung epethalial and macrophage cells exposed to anthrax toxin (PA and FP59)
Format: cell-based

Substance | Protein Synthesis Inferred From ^35S incorporation [%]
PGluArgValArgArgOPH (PERVRR-{OPH}; not fully specified (some residues); printed as PGluArgValArgArgOPH; reading uncertain) [ERVRR-OPH] | 70.9 ± 8.7
decanoyl RVKR-CMK (Decanoyl-RVKR-CH2Cl) | 86.9 ± 9.9
